Laboratory results published in PubChem BioAssay (NCI).
Several values for one entry are separate records, joined by “and”; a condition that tells them apart may be missing. Equal entries are not always repeated.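 Tested at 5 concentrations; 48 h exposure; 96-well plates; endpoints linearly interpolated, else capped at highest concentration. GI50: concentration for 50% inhibition of growth. Definition used: TGI = concentration required for complete inhibition of growth.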

Tests used:
Assay in all cases: inhibition of tumour cell growth, NCI panel, 48 h
UO-31 renal = system: UO-31 renal
HCT-116 colon = system: HCT-116 colon
MCF7 breast = system: MCF7 breast
HOP-62 NSCLC = system: HOP-62 NSCLC
NCI-H23 lung = system: NCI-H23 lung
CAKI-1 renal = system: CAKI-1 renal
A498 renal = system: A498 renal
EKVX NSCLC = system: EKVX NSCLC
SK-MEL-5 melanoma = system: SK-MEL-5 melanoma
NCI-H522 lung = system: NCI-H522 lung

Structure (SMILES)	GI50 (UO-31 renal) [µM]	TGI (UO-31 renal)	GI50 (HCT-116 colon) [µM]	TGI (HCT-116 colon) [µM]	GI50 (MCF7 breast) [µM]	TGI (MCF7 breast) [µM]	GI50 (HOP-62 NSCLC) [µM]	TGI (HOP-62 NSCLC)	GI50 (NCI-H23 lung) [µM]	TGI (NCI-H23 lung) [µM]	GI50 (CAKI-1 renal) [µM]	TGI (CAKI-1 renal) [µM]	GI50 (A498 renal) [µM]	TGI (A498 renal)	GI50 (EKVX NSCLC) [µM]	TGI (EKVX NSCLC)	GI50 (SK-MEL-5 melanoma)	TGI (SK-MEL-5 melanoma)	TGI (NCI-H522 lung)	GI50 (NCI-H522 lung) [µM]
COc1ccc(NC(=O)/C=C(C)/C=C/C=C(C)/C=C/C2=C(C)CCCC2(C)C)cc1	10.8	25.4 µM	2.43	6.99	3.28	12.4	18.2	34.1 µM	9.78	24.3	3.28	14.4	19.9	34.5 µM	14.9	29.2 µM	9.06 µM	21.1 µM		
COc1ccc(OC(C(=O)O)C(C)C)c2c1CCCC2=O (stereo unspecified)		> 100 µM		> 100				> 100 µM		> 100		> 100		> 100 µM		> 100 µM		> 100 µM	> 100 µM	
COc1ccc2c(c1OC)-c1c(c3ccc([N+](=O)[O-])cc3c(=O)n1CCCBr)C2=O	35.3	> 100 µM	19	> 100	3.66	20.6	21.8	58.5 µM			7.31	> 100	> 100	> 100 µM	> 100	> 100 µM	18.1 µM	> 100 µM	> 100 µM	27.6
Cc1cc(C)c2c(n1)sc1c(N)ncnc12	12.9	> 25 µM	24.4	> 25	> 25	> 25	> 25	> 25 µM	> 25	> 25	15.8	> 25	4.9	> 25 µM			> 25 µM	> 25 µM	> 25 µM	> 25
CNNC(=N\S(=O)(=O)c1cc(C)c(Cl)cc1SCc1ccccc1)/N=C/c1ccc([N+](=O)[O-])s1	> 100	> 100 µM	1.53	> 100	97.9	> 100	> 100	> 100 µM	> 100	> 100	> 100	> 100			> 29.6	> 100 µM	1.48 µM	> 37.3 µM	> 100 µM	> 100
CC(C)(O)/C=C/C(=O)[C@](C)(O)[C@H]1[C@H](O)C[C@@]2(C)[C@@H]3CC=C4[C@@H](C[C@H](O)C(=O)C4(C)C)[C@]3(C)C(=O)C[C@]12C	0.206	0.396 µM and 0.519 µM	0.164				0.337	0.699 µM and 0.547 µM	0.462	15.5	1.85		0.0909	0.244 µM and 0.115 µM	0.477	0.833 µM and 3.47 µM	0.0565 µM and 0.11 µM	0.682 µM and 2.44 µM	0.453 µM and 0.775 µM	0.069
O=C1C(=O)N(c2ccc(Cl)cc2)C(=O)C(=O)C1c1nc2ccccc2s1		> 100 µM		> 100				> 100 µM		> 100		> 100				> 100 µM		> 100 µM	> 100 µM	
Clc1cccc(N2CCN(CCCN3CCc4c([nH]c5ccccc45)C3c3cccnc3)CC2)c1 (stereo unspecified)		18.5 µM	6.97	24.9				32.7 µM		27		25.7		27.2 µM		35.1 µM	6.79 µM	24.9 µM	25.7 µM	
